Measurements from article PMC4331650 (Biochimica et Biophysica Acta, 2014).
Changes are numbered by the printed parent chain. Several values for one entry are separate records, joined by “and”; a condition that tells them apart may be missing. Identical values can stand only once.

Assays:
[1] = molecular target: T1, N257A CLC-Ka (Homo sapiens, UniProt P51800, N257A); type: cell-based; conditions: 100 μM CPAint; negative voltages
T1 sequence (P51800 1-687 N257A): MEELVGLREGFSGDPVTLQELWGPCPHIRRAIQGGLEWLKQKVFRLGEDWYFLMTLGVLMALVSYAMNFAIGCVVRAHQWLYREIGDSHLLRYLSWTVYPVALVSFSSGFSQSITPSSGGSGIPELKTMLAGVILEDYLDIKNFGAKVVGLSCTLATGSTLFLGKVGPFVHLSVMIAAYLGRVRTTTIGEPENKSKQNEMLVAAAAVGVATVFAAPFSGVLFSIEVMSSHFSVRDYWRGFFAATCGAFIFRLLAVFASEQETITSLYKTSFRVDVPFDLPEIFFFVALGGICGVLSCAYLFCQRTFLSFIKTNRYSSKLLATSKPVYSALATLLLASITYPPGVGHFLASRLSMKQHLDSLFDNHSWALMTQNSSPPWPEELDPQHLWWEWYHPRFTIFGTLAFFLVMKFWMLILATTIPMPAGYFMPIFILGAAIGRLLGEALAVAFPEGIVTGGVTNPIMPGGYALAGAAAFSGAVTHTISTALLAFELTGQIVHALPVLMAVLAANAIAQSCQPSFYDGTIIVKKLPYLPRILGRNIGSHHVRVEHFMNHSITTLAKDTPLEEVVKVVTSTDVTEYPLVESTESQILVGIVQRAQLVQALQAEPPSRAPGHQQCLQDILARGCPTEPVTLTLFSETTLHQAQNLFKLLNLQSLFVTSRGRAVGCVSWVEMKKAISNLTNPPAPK
T1 sequence (Q8WZ55 1-320 Y98A partner): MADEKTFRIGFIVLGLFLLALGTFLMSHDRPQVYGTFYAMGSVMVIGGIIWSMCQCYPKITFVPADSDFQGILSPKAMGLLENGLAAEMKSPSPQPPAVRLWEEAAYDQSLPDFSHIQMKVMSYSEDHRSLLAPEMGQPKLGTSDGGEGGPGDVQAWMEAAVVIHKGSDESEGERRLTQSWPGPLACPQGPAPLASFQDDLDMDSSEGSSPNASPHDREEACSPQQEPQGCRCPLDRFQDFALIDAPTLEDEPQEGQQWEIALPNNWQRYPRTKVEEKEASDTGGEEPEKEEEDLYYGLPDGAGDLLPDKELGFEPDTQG

[2] = tested on: CLC-0; conditions: negative potentials; cited from earlier work
[3] = molecular target: T1, N257A CLC-Ka; type: cell-based; conditions: 50 μM CPA, intracellular; −100 mV
[4] = tested on: CLC-1; conditions: negative potentials; cited from earlier work
[5] = molecular target: T2, WT CLC-Ka (Homo sapiens, UniProt P51800); conditions: Xenopus oocytes; cited from earlier work
T2 sequence (P51800 1-687): T1 sequence (P51800 1-687 N257A) with A257N
T2 sequence (Q8WZ55 1-320 Y98A partner): T1 sequence (Q8WZ55 1-320 Y98A partner)

| Structure (SMILES) | effect of CPA on currents [1] | effect on CLC-0 currents [2] | amplitude of predominant conductance level in the presence of CPA [3] | effect on CLC-1 currents [4] | effect on CLC-Ka [5] |
| --- | --- | --- | --- | --- | --- |
| O=C(O)COc1ccc(Cl)cc1 [CPA, p-chlorophenoxy-acetic acid] | inhibits | block | ~ 0.66 pA and 0.66 pA | block |  |
| O=S(=O)(O)c1cc(N=C=S)ccc1C=Cc1ccc(N=C=S)cc1S(=O)(=O)O [DIDS] |  |  |  |  | inhibit |
| O=C(O)c1ccccc1Nc1cccc(C(F)(F)F)c1 [flufenamic acid] |  |  |  |  | inhibit |
